Assay results reported in ChEMBL document CHEMBL1129058, “Indole inhibitors of human nonpancreatic secretory phospholipase A2. 2. Indole-3-acetamides with additional functionality” (J Med Chem, 1996).
Where “and” joins values, the source holds several entries; their conditions need not be identical. Equal values may be shown once.

Assays:
[1] = target: T1, Phospholipase A2, membrane associated (Homo sapiens, UniProt P14555); experiment: Inhibition of human non-pancreatic secretory phospholipase A2 (PLA2) in a chromogenic assay
T1 sequence (P14555 whole entry): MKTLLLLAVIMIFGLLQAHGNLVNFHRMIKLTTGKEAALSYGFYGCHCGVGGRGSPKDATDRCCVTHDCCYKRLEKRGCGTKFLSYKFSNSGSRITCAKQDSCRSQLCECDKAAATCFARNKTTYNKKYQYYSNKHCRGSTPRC

Cavia porcellus = species on record: Cavia porcellus; experiment: Effective dose of compound against contraction of Guinea pig lung tissue with arachidonic acid.; type: functional
[2] = target: T2, Phospholipase A2, membrane associated (Homo sapiens) (UniProt P14555); experiment: Inhibitory activity against contraction of Guinea pig lung tissue induced by PLA2.; type: functional, tissue-based; details: Cavia porcellus, target entry is the homologue from another species
T2 sequence (whole entry): T1 sequence (P14555 whole entry)

Row | Structure (SMILES) | IC50 [1] [µM] | ED50 (Cavia porcellus) [µM] | Kb [2]
1 | Cc1c(CC(N)=O)c2ccc(OCCCC(N)=O)cc2n1Cc1ccccc1 | 5.83 |  | 
2 | CCc1c(CC(N)=O)c2cc(SCCCP(=O)(O)O)ccc2n1Cc1ccccc1 | 0.058 |  | 
3 | Cc1c(CC(N)=O)c2cc(OCCCP(=O)(O)O)ccc2n1Cc1ccccc1 |  | >10 | 
4 | Cc1c(CC(N)=O)c2cc(OCC(=O)O)ccc2n1Cc1ccccc1 | 1.79 | >30 | 8.22 µM
5 | CCc1c(CC(N)=O)c2cc(SCCCC(=O)O)c(C)cc2n1Cc1ccccc1 | 0.022 |  | 
6 | Cc1c(CC(N)=O)c2c(OCC(=O)NN)cccc2n1Cc1ccccc1 | 0.422 |  | 1.95 µM
7 | Cc1c(CC(N)=O)c2c(OCC(=O)O)cccc2n1Cc1cccc(Cl)c1 | 0.052 |  | 0.19 µM
8 | CCc1c(CC(N)=O)c2cc(OCCCP(=O)(O)O)ccc2n1Cc1ccccc1 |  | >10 | 
9 | NC(=O)Cc1cn(Cc2ccccc2)c2cccc(OCC(=O)O)c12 | 0.321 |  | 
10 | NC(=O)Cc1cn(Cc2ccccc2)c2ccc(OCCCC(=O)O)cc12 | 0.18 |  | 
11 | NC(=O)Cc1c(Br)n(Cc2ccccc2)c2cc(Cl)c(OCCCC(=O)O)cc12 |  | >10 | 
12 | CCc1c(CC(N)=O)c2cc(OCCCP(=O)(O)O)c(C(C)C)cc2n1Cc1ccccc1 | 0.04 |  | 0.698 µM
13 | NC(=O)Cc1c(Br)n(Cc2ccccc2)c2ccc(OCCCC(=O)O)cc12 | 0.073 | >10 | 0.53 µM
14 | CSc1c(CC(N)=O)c2cc(OCCCC(N)=O)ccc2n1Cc1ccccc1 | 0.093 |  | 
15 | Cc1c(CC(=O)NN)c2cc(OCCCC(=O)O)ccc2n1Cc1ccccc1 | 1.02 | >30 | 2.17 µM
16 | CCc1c(C(N)=O)c2c(OCC(=O)O)cccc2n1Cc1cccc(Cl)c1 | 16.8 |  | 
17 | Cc1c(CC(N)=O)c2cc(NCCC(=O)O)ccc2n1Cc1ccccc1 | 3.37 |  | 
18 | C=CCc1c(O)ccc2c1c(CC(N)=O)c(CC)n2Cc1ccccc1 | 0.143 |  | 
19 | NC(=O)Cc1cn(Cc2ccccc2)c2ccc(OCCCP(=O)(O)O)cc12 | 0.203 |  | 
20 | Cc1c(CCC(N)=O)c2cc(OCCCC(=O)O)ccc2n1Cc1ccccc1 | 6.93 |  | 
21 | NC(=O)Cc1c(Cl)n(Cc2ccccc2)c2ccc(OCCCC(=O)O)cc12 | 0.077 | >30 | 0.61 µM
22 | Cc1c(CC(N)=O)c2cc(OCc3ccccc3C(=O)O)ccc2n1Cc1ccccc1 | 0.147 | >10 | 0.72 µM

Row | Structure (SMILES) | IC50 [1] [µM] | ED50 (Cavia porcellus) [µM] | Kb [2]
23 | CCc1c(CC(N)=O)c2cc(OCCCC(=O)O)ccc2n1Cc1ccccc1 |  | >10 | 
24 | NC(=O)Cc1c(C2CC2)n(Cc2ccccc2)c2ccc(OCCCC(=O)O)cc12 | 0.044 |  | 
25 | Cc1c(CC(N)=O)c2cc(O)ccc2n1Cc1ccccc1 | 1.02 |  | 
26 | Cc1c(CC(N)=O)c2c(OCC(=O)O)cccc2n1Cc1ccccc1 |  | >10 | 
27 | Cc1c(CC(N)=O)c2cc(OCCCC(=O)O)ccc2n1Cc1ccccc1 |  | >30 | 
28 | CSc1c(CC(N)=O)c2cc(OCCCC(=O)O)ccc2n1Cc1ccccc1 | 0.162 | >10 | 0.63 µM
29 | Cc1c(CC(N)=O)c2cc(NCCCC(=O)O)ccc2n1Cc1ccccc1 | 1.83 |  | 
30 | NC(=O)Cc1c(C2CC2)n(Cc2ccccc2)c2ccc(OCCCP(=O)(O)O)cc12 | 0.074 |  | 0.9 µM
31 | Cc1c(CC(N)=O)c2c(O)cccc2n1Cc1ccccc1 | 8.28 |  | 
32 | NC(=O)Cc1c(Br)n(Cc2ccccc2)c2cc(Cl)c(O)cc12 | 0.085 |  | 
33 | CCc1c(CC(N)=O)c2cc(OCCCP(=O)(O)OC)ccc2n1Cc1ccccc1 | 0.04 | >10 | 0.34 µM
34 | Cc1c(CC(=O)O)c2cc(OCCCC(=O)O)ccc2n1Cc1ccccc1 | 25.9 |  | 
35 | Cc1c(CC(=O)NN)c2cc(OCCCP(=O)([O-])[O-])ccc2n1Cc1ccccc1.[Na+].[Na+] | 0.462 | >10 | 1.07 µM
36 | CCCc1c(CC(N)=O)c2cc(O)ccc2n1Cc1ccccc1 | 34 |  | 
37 | COC(=O)COc1cccc2c1c(CC(N)=O)c(C)n2Cc1ccccc1 | 1.38 |  | 
38 | CCCc1c(CC(N)=O)c2cc(OCCCP(=O)(O)O)ccc2n1Cc1ccccc1 | 6.13 |  | 
39 | CCc1c(CC(N)=O)c2cc(OCCCP(=O)(OC)OC)ccc2n1Cc1ccccc1 | 0.266 |  | 
40 | Cc1c(CC(N)=O)c2c(OCP(=O)(O)O)cccc2n1Cc1ccccc1 |  | >10 | 
41 | CCOC(=O)CCCCOc1ccc2c(CC(N)=O)c(C)n(Cc3ccccc3)c2c1 | 0.306 | >30 | 22.5 µM
42 | Cc1c(CC(N)=O)c2cc(OCCCCC(=O)O)ccc2n1Cc1ccccc1 | 1.15 | >30 | 8.8 µM
43 | NC(=O)Cc1c(Br)n(Cc2ccccc2)c2ccc(OCCCP(=O)(O)O)cc12 [listing 1 of 3 here] | 0.033 | >10 | 
44 | Cc1c(CC(N)=O)c2cc(OCCCP(=O)(O)O)ccc2n1Cc1ccccc1-c1ccccc1 |  | >10 | 

Row | Structure (SMILES) | IC50 [1] [µM] | ED50 (Cavia porcellus) [µM] | Kb [2]
45 | CCc1c(CC(N)=O)c2cc(SCCCC(=O)O)ccc2n1Cc1ccccc1 | 0.023 |  | 0.124 µM
46 | Cc1c(CC(N)=O)c2c(O)cccc2n1Cc1cccc(Cl)c1 | 5.88 |  | 
47 | Cc1cc(OCCCC(=O)O)cc2c(CC(N)=O)c(C)n(Cc3ccccc3)c12 | 0.075 |  | 
48 | CCc1c(CC(N)=O)c2cc(OCc3ccccc3C(=O)O)ccc2n1Cc1ccccc1 | 0.555 |  | 
49 | CCc1c(CC(N)=O)c2cc(SCCC(=O)O)ccc2n1Cc1ccccc1 | 0.059 |  | 
50 | CCc1c(CC(N)=O)c2cc(SCCCC(=O)O)c(C(C)C)cc2n1Cc1ccccc1 | 0.033 |  | 
51 | Cc1c(CC(N)=O)c2cc(Oc3cccc(C(=O)O)c3)ccc2n1Cc1ccccc1 | > 110 |  | 
52 | NC(=O)Cc1c(Br)n(Cc2ccccc2)c2ccc(OCCCP(=O)(O)O)cc12 [listing 2 of 3 here] | 0.165 |  | 
53 | CCc1c(CC(N)=O)c2c(OCC(=O)O)cccc2n1Cc1ccccc1 |  | >3 | 
54 | Cc1c(CC(N)=O)c2cc(CCCC(=O)O)ccc2n1Cc1ccccc1 | 0.155 |  | 0.332 µM
55 | CCc1c(CC(N)=O)c2cc(OCCCP(=O)(O)O)ccc2n1Cc1cccc(Cl)c1 |  |  | 0.24 µM
56 | Cc1c(CC(N)=O)c2c(OCC(=O)O)cccc2n1Cc1ccccc1-c1ccccc1 |  |  | 0.14 µM
57 | NC(=O)Cc1cn(Cc2ccccc2)c2ccc(OCP(=O)(O)O)cc12 | 3.68 |  | 
58 | Cc1c(CC(N)=O)c2cc(OCCC(=O)O)ccc2n1Cc1ccccc1 | 0.527 | >30 | 3.76 µM
59 | CCc1c(CC(N)=O)c2cc(OCCCP(=O)(O)O)c(C)cc2n1Cc1ccccc1 | 0.015 |  | 0.202 µM
60 | Cc1c(CC(N)=O)c2cc(OCCCC3=NNNN3)ccc2n1Cc1ccccc1 | 2.45 |  | 
61 | NC(=O)Cc1c(Br)n(Cc2ccccc2)c2ccc(OCCCP(=O)(O)O)cc12 [listing 3 of 3 here] |  |  | 0.44 µM and 1.55 µM
62 | CCc1c(CC(N)=O)c2cc(OCCCS(=O)(=O)O)ccc2n1Cc1ccccc1 |  | >10 | 
63 | Cc1cc(SCCCC(=O)O)cc2c(CC(N)=O)c(C)n(Cc3ccccc3)c12 | 0.051 |  | 
64 | Cc1c(CC(N)=O)c2ccc(OCCCC(=O)NN)cc2n1Cc1ccccc1 | 1.27 |  | 
65 | CCc1c(CC(N)=O)c2cc(OCCCC(=O)O)c(C)cc2n1Cc1ccccc1 | 0.033 |  | 0.206 µM
